Here are results for 20 compounds from ChEMBL document CHEMBL1149799, “Bioactive peroxides as potential therapeutic agents” (Eur J Med Chem, 2008).

In one assay the test system is HT-29. As to the kind of experiment: Cytotoxicity against human HT29 cells. Format: functional, cell-based. The note with it: Homo sapiens, HT-29; for EC50: read-out: ED50 (the source's name).
A further assay relates to A549. As to the kind of experiment: Cytotoxicity against human A549 cells. Type of assay: functional, cell-based. As to conditions: Homo sapiens, A549; for EC50: read-out: ED50 (the source's name).
Assay [1] relates to P388. As to the kind of experiment: Cytotoxicity against mouse P388 cells. Type of assay: functional, cell-based. The note with it: Mus musculus, P388; for EC50: read-out: ED50 (the source's name).
A further assay relates to KB. As to the kind of experiment: Cytotoxicity against human KB cells. Format: functional, cell-based. As to conditions: Homo sapiens; for EC50: read-out: ED50 (the source's name).
The next assay deals with DU-145. As to the kind of experiment: Cytotoxicity against human DU145 cells. Format: functional, cell-based. The note with it: Homo sapiens, DU-145.
Assay [2] in a line: Cytotoxicity against human MEL28 cells. The note with it: SK-MEL-28.
A further assay concerns L1210. As to the kind of experiment: Cytotoxicity against mouse L1210 cells. Type of assay: functional, cell-based. The note with it: for IC50: Mus musculus, L1210.
Another assay deals with LoVo. As to the kind of experiment: Cytotoxicity against human LoVo cells. Type of assay: functional.
A further assay concerns HCT-116. Description: Cytotoxicity against human HCT116 cells. Type of assay: functional, cell-based.
In assay [3] the test system is P388. As to the kind of experiment: Cytotoxicity against mouse P388 cells at 0.05 ug/ml. Format: functional.
A short description of assay [4]: Cytotoxicity against mouse Ehrlich Ascites carcinoma by trypan blue exclusion assay. Format: functional.
In a further assay the test system is MDA-MB-231. As to the kind of experiment: Cytotoxicity against human MDA-MB-231 cells. Type of assay: functional, cell-based.

In brackets after ≈: the same amount, converted by molar mass. Where only a bound is given, the exact number is not on record here.

Regarding `C[C@H](C/C=C/C(C)(C)OO)[C@H]1CC[C@H]2[C@@H]3CC(=O)C4=CC(=O)CC[C@]4(C)[C@H]3CC[C@]12C`, the EC50 in the assay on HT-29 came out at 1.48 µg/mL (≈ 3.45 µM); in the assay with A549, 0.88 µg/mL (≈ 2.05 µM); with P388 [1], 0.53 µg/mL (≈ 1.24 µM); with KB (KB) it was 1.15 µg/mL (≈ 2.68 µM).
What is called IC50 is the concentration at which inhibition is half-maximal. A low value points to inhibition by little substance. With `C=CCCC/C=C/C=C\CCCCCCCC[C@H]1CC[C@H]([C@@H]2CC[C@@H](CC(=O)[O-])OO2)O1.[Na+]` [STOLONOXIDE D], the IC50 in the assay with DU-145 stood at 0.1 µg/mL; with HT-29 it was 0.05 µg/mL; in assay [2], 0.1 µg/mL; in the assay with A549 it was 0.1 µg/mL; in the assay with P388 [1], 0.5 µg/mL.
In the assay with L1210, `COC(=O)C[C@]1(C)C[C@@](C)(CC(C)CCCC/C=C/CC/C=C\c2ccccc2)OO1` (some centres not stated) came in with an IC50 of 0.013 µg/mL (≈ 0.0303 µM). For the same compound, the MIC with LoVo and in the assay with KB was 1 µg/mL (≈ 2.33 µM) in each case.
With `C=CCCC/C=C/C=C\CCCCCCCC[C@H]1CC[C@@H]([C@H]2CC[C@@H](CC(=O)O)OO2)O1` [STOLONOXIDE B], the IC50 in the assay with DU-145 stood at 0.1 µg/mL (≈ 0.223 µM); with HT-29 it was 0.1 µg/mL; in assay [2], 0.1 µg/mL (≈ 0.223 µM); in the assay with A549 it was 0.1 µg/mL; with P388 [1] it was 0.05 µg/mL (≈ 0.111 µM).
`C/C1=C\CC[C@]2(C)O[C@H]([C@@H]3OC(=O)[C@]4(OO)CCO[C@@H]2C[C@H]34)[C@H](C)CCC1` [PLANAXOOL]: in the assay with L1210, the IC100 turned out to be 2.4 µg/mL.
As for `CC(CCCCCCCCc1ccccc1)CC(C)C[C@]1(C)C[C@](C)(CC(=O)O)OO1` (some centres not stated) [EPIPLAKINIC ACID H], the half-inhibitory concentration (IC50) in the assay with HCT-116 is 0.39 µM.
For `C=CCC/C=C\C=C/CCCCCCCC[C@@H]1CC[C@@H]([C@@H]2CC[C@@H](CC(=O)[O-])OO2)O1.[Na+]`, the IC50 is 0.1 µg/mL in the assay on DU-145; 0.1 µg/mL in the assay on HT-29; 0.1 µg/mL in assay [2]; 0.1 µg/mL in the assay on A549; 0.01 µg/mL in the assay with P388 [1].
Consider `CC(CCCC/C=C/CC/C=C\c1ccccc1)C[C@]1(C)C[C@@](C)(CC(=O)O)OO1` (some centres not stated) [PLAKINIC ACID C], for which, in the assay with L1210, the IC50 amounted to 0.017 µg/mL (≈ 0.041 µM). Further, the MIC in the assay with LoVo is 0.1 µg/mL (≈ 0.241 µM); with KB, 0.01 µg/mL (≈ 0.0241 µM).
By inhibition is commonly meant the drop in the measured response relative to a control, in per cent. As for `CCCCCCCCCCCCCCC[C@@]1(OC)C=C[C@H](CC(=O)OC)OO1` [PLAKORIN], the IC50 turned out to be 0.85 µg/mL (≈ 2.13 µM) in the assay on L1210 and 1.8 µg/mL (≈ 4.52 µM) in the assay with KB (KB). In the assay on P388 [3], this compound had an inhibition at 0.05 µg/mL of 50%.
`COC(=O)C[C@@]1(C)C[C@@](C)(CC(C)CC/C=C/CC/C=C/c2ccccc2)OO1` (some centres not stated) came in with an IC50 in the assay on L1210 of 0.003 µg/mL (≈ 0.00749 µM). In addition, the MIC against LoVo and in the assay with KB was 0.1 µg/mL (≈ 0.25 µM) each time.
In the assay with P388 [3], `C/C=C/C=C/CCCCCCC[C@]1(OC)C=C[C@H](CC(=O)OC)OO1` came in with an inhibition at 0.05 µg/mL of 50%.
Take `C/C=C/CCCCCCCCC[C@]1(OC)C=C[C@H](CC(=O)OC)OO1`: the inhibition at 0.05 µg/mL in the assay on P388 [3] came out at 50%.
Take `C[C@H](C/C=C/C(C)(C)OO)[C@H]1CC[C@H]2[C@@H]3CC=C4C[C@@H](O)CC[C@]4(C)[C@H]3CC[C@]12C`: the EC50 in the assay on HT-29 is 1.27 µg/mL (≈ 3.05 µM); with A549, 1.68 µg/mL (≈ 4.03 µM); in the assay with P388 [1], 0.22 µg/mL (≈ 0.528 µM); in the assay with KB (KB) it was 1.41 µg/mL (≈ 3.38 µM).
In the assay on L1210, `COC(=O)C[C@]1(C)C[C@@](C)(CC(C)CC/C=C/CC/C=C/c2ccccc2)OO1` (some centres not stated) had an IC50 of 0.0043 µg/mL (≈ 0.0107 µM). The MIC against LoVo stood at 0.1 µg/mL (≈ 0.25 µM); with KB, 1 µg/mL (≈ 2.5 µM).
For the compound `C=CC(CC[C@@H](C)[C@H]1CC[C@H]2[C@@H]3C[C@@H](O)C4=CC(=O)CC[C@]4(C)[C@H]3CC[C@]12C)(OO)C(C)C` (some centres not stated), the EC50 with HT-29 was 0.43 µg/mL (≈ 0.937 µM); with A549, 0.64 µg/mL (≈ 1.4 µM); in the assay with P388 [1], 0.4 µg/mL (≈ 0.872 µM); in the assay on KB (KB) it was 1.8 µg/mL (≈ 3.92 µM).
A word on the IC80: it is the point of the concentration-response curve where the effect stands at 80%. Lower therefore signals greater potency. In [4], `CC(=O)[C@@H]1CC[C@@H](C)[C@@H]2CC[C@]3(C)OO[C@@]12[C@H](OC=O)O3` yielded an IC50 of 91 µM and an IC80 of 156 µM.
On to `C=CCCC/C=C/C=C\CCCCCCCC[C@@H]1CC[C@@H]([C@@H]2CC[C@@H](CC(=O)[O-])OO2)O1.[Na+]`, for which the IC50 came to 0.1 µg/mL in the assay on DU-145, 0.1 µg/mL with HT-29, 0.1 µg/mL in the assay with A549 and 0.01 µg/mL in the assay with P388 [1].
For `C=CCC/C=C\C=C/CCCCCCCC[C@H]1CC[C@H]([C@@H]2CC[C@@H](CC(=O)[O-])OO2)O1.[Na+]` [stolonoxide C], the IC50 was 0.1 µg/mL with DU-145; 0.1 µg/mL in the assay on HT-29; 0.5 µg/mL in assay [2]; 0.1 µg/mL in the assay with A549; 0.5 µg/mL in the assay on P388 [1].
In [4], `C[C@@H]1CC[C@@H]2[C@]34OO[C@@](C)(CC[C@@H]13)O[C@H]4OC(=O)[C@@]2(C)O` displayed an IC50 of more than 125 µM and an 80% effect concentration (IC80) of more than 125 µM.
Take `CCCC(CC)CC(C)C[C@]1(CC)C[C@H](CC)[C@H](CC(=O)OC)OO1` (some centres not stated): the IC50 in the assay with HT-29 came out at 12.3 µM; with A549, 14 µM; in the assay with MDA-MB-231, 24.4 µM.
